Key:
Type in all cases: in vivo
[1] = test system: PDX mouse models of TNBC; assay: Antitumor effects across the panel of 40 PDX mouse models of TNBC; conditions: range across PDX TNBC models of Table 4
Excerpt: Establish PDX tumor models from viable human tumor tissue and serially passage in immunocompromised female mice a limited number of times. Using tumor fragments harvested from donor host animals, perform unilateral subcutaneous implants from a specific passage of the PDX tumor model on the flanks of the experimental animals. When tumor volumes reach approximately 150-250 mm^3 in size, randomize the animals by treatment arm by randomization techniques well known in the art and place into their respective treatment groups using 1 animal per treatment group (3 animals in an untreated group). […]
Capture tumor size and body weight twice per week. Estimate tumor volume (V) by using the formula: V=(π/6)×L×W^2 where L=larger of measured diameter and W=smaller perpendicular diameter. Calculate relative tumor volume using the tumor volume measurement taken nearest to the last day of dosing for each animal (T), divided by the baseline tumor volume for that animal (T0), which is the volume recorded on or just prior to the first day of dosing, Y=T/T0. […] Tumor growth inhibition is observed in those instances where the calculated values for % ΔT/ΔC are less than 100% whereby greater inhibition results in smaller % ΔT/ΔC values. If ΔT<0, then a tumor regression value is calculated instead of % ΔT/ΔC whereby % Regression=100(YT−1). […]

[2] = test system: PDX TNBC Model ST1283; assay: Antitumor effects in PDX mouse model of TNBC; conditions: A 10 mg/kg SC BID 3 days on/4 off ×4, B 7.5 mg/kg PO BID×28, versus vehicle
Excerpt: (§1) Establish PDX tumor models from viable human tumor tissue and serially passage in immunocompromised female mice a limited number of times. Using tumor fragments harvested from donor host animals, perform unilateral subcutaneous implants from a specific passage of the PDX tumor model on the flanks of the experimental animals. When tumor volumes reach approximately 150-250 mm^3 in size, randomize the animals by treatment arm by randomization techniques well known in the art and place into their respective treatment groups using 1 animal per treatment group (3 animals in an untreated group). Formulate CHK1 inhibitor, 5-(5-(2-(3-aminopropoxy)-6-methoxyphenyl)-1H-pyrazol-3-ylamino)pyrazine-2-carbonitrile methanesulfonate hydrate, (Compound A) every 14 days in 20% captisol (dissolved in water) and administer subcutaneously twice daily at a dose of 10 mg/kg on days 1/2/3 of a weekly cycle for 4 weeks (SC, BID [3 days on/4 off]×4). Formulate the PI3K/mTOR dual inhibitor, 8-[5-(1-hydroxy-1-methylethyl)pyridin-3-yl]-1-[(2S)-2-methoxypropyl]-3-methyl-1,3-dihydro-2H-imidazo[4,5-c]quinolin-2-one, (Compound B) weekly in 1% (HEC)/0.25% Tween 80 (Polysorbate 80)/0.05% Dow-Corning Antifoam 1510-US and administer by oral gavage twice-daily for 28 days (PO, BID×28) at a dose of 7.5 mg/kg. Dose combination treatment animals with both compounds according to the schedule described above for monotherapy, and dose vehicle treatment animals with vehicle according to the schedule for Compound B.
(§2) Test the combination of Compound A and Compound B, as well as their respective monotherapies, in 40 PDX models (Table 1) of TNBC. Assess antitumor efficacy of the treatment groups by measuring tumor volume via caliper measurements twice a week during the course of the study. Measure body weight twice weekly during the course of the study as a general indicator of tolerability.
(§3) Capture tumor size and body weight twice per week. Estimate tumor volume (V) by using the formula: V=(π/6)×L×W^2 where L=larger of measured diameter and W=smaller perpendicular diameter. Calculate relative tumor volume using the tumor volume measurement taken nearest to the last day of dosing for each animal (T), divided by the baseline tumor volume for that animal (T0), which is the volume recorded on or just prior to the first day of dosing, Y=T/T0. Calculate % ΔT/ΔC values using the formula % ΔT/ΔC=100(YT−1)/(YC−1), whereby YT or YC=geometric mean relative volume of the compound treated group or the control group, respectively. Tumor growth inhibition is observed in those instances where the calculated values for % ΔT/ΔC are less than 100% whereby greater inhibition results in smaller % ΔT/ΔC values. If ΔT<0, then a tumor regression value is calculated instead of % ΔT/ΔC whereby % Regression=100(YT−1). Note that negative values indicate regression. We collectively refer to % ΔT/ΔC and % Regression as % Response.
(§4) Examine relative tumor volume (final volume divided by baseline volume) on the last day of treatment or the last day on which data from all three treatment groups and vehicle is available, if it is earlier than the last day of treatment and at least 14 days after baseline. Expected additive relative volume is determined using the Bliss method (Bliss, C. I., Ann Appl Biol, 1939; 26(3):585-615). Specifically, denoting Y=relative volume, YExp=(Y1*Y2)/YV, where YExp=expected additive relative volume, Y1 and Y2 are the relative volumes in the single agent groups (Compound A and Compound B), and YV is the relative volume in the vehicle group. A range of additivity is defined around the expected additive relative volume via upper and lower limits as follows:
(§5) Yupper=max(2*YExp,YExp+0.2)
(§6) Ylower=min(YExp/2,YExp−0.2)
(§7) The upper limit of the range is the larger of 2-fold above or 20% above the expected additive relative volume, and the lower limit is the smaller of 2-fold below or 20% below the expected additive relative volume. […]

[3] = test system: PDX TNBC Model CTG-1408; assay: Antitumor effects in PDX mouse model of TNBC; conditions: PDX model CTG-1408; A 10 mg/kg SC BID 3 days on/4 off ×4; B 7.5 mg/kg PO BID×28; versus vehicle
Excerpt: as §1, §2, §3, §4, §5, §6, §7

[4] = test system: PDX TNBC Model MAXF MX1; assay: Antitumor effects in PDX mouse model of TNBC; conditions: A 10 mg/kg SC BID 3 days on/4 off ×4, B 7.5 mg/kg PO BID×28, versus vehicle
Excerpt: as §1, §2, §3, §4, §5, §6, §7

[5] = test system: PDX TNBC Model CTG-0986; assay: Antitumor effects in PDX mouse model of TNBC; conditions: PDX model CTG-0986; A 10 mg/kg SC BID 3 days on/4 off ×4; B 7.5 mg/kg PO BID×28; versus vehicle
Excerpt: as §1, §2, §3, §4, §5, §6, §7

[6] = test system: PDX TNBC Model CTG-1453; assay: Antitumor effects in PDX mouse model of TNBC; conditions: PDX model CTG-1453; A 10 mg/kg SC BID 3 days on/4 off ×4; B 7.5 mg/kg PO BID×28; versus vehicle
Excerpt: as §1, §2, §3, §4, §5, §6, §7

[7] = test system: PDX TNBC Model CTG-0437; assay: Antitumor effects in PDX mouse model of TNBC; conditions: PDX model CTG-0437; A 10 mg/kg SC BID 3 days on/4 off ×4; B 7.5 mg/kg PO BID×28; versus vehicle
Excerpt: as §1, §2, §3, §4, §5, §6, §7

[8] = test system: PDX TNBC Model ST2057; assay: Antitumor effects in PDX mouse model of TNBC; conditions: A 10 mg/kg SC BID 3 days on/4 off ×4, B 7.5 mg/kg PO BID×28, versus vehicle
Excerpt: as §1, §2, §3, §4, §5, §6, §7

[9] = test system: PDX TNBC Model CTG-0017; assay: Antitumor effects in PDX mouse model of TNBC; conditions: PDX model CTG-0017; A 10 mg/kg SC BID 3 days on/4 off ×4; B 7.5 mg/kg PO BID×28; versus vehicle
Excerpt: as §1, §2, §3, §4, §5, §6, §7

[10] = test system: PDX TNBC Model MAXF 857; assay: Antitumor effects in PDX mouse model of TNBC; conditions: PDX model MAXF 857; A 10 mg/kg SC BID 3 days on/4 off ×4; B 7.5 mg/kg PO BID×28; versus vehicle
Excerpt: as §1, §2, §3, §4, §5, §6, §7

[11] = test system: PDX TNBC Model CTG-1350; assay: Antitumor effects in PDX mouse model of TNBC; conditions: PDX model CTG-1350; A 10 mg/kg SC BID 3 days on/4 off ×4; B 7.5 mg/kg PO BID×28; versus vehicle
Excerpt: as §1, §2, §3, §4, §5, §6, §7

[12] = test system: PDX TNBC Model CTG-1153; assay: Antitumor effects in PDX mouse model of TNBC; conditions: PDX model CTG-1153; A 10 mg/kg SC BID 3 days on/4 off ×4; B 7.5 mg/kg PO BID×28; versus vehicle
Excerpt: as §1, §2, §3, §4, §5, §6, §7

[13] = test system: PDX TNBC Model ST069; assay: Antitumor effects in PDX mouse model of TNBC; conditions: A 10 mg/kg SC BID 3 days on/4 off ×4, B 7.5 mg/kg PO BID×28, versus vehicle
Excerpt: as §1, §2, §3, §4, §5, §6, §7

COc1cccc(OCCCN)c1-c1cc(Nc2cnc(C#N)cn2)n[nH]1.CS(=O)(=O)O [Compound A, 5-(5-(2-(3-aminopropoxy)-6-methoxyphenyl)-1H-pyrazol-3-ylamino)pyrazine-2-carbonitrile methanesulfonate hydrate]
efficacy values, % response, range over the models [1]: 126.1% to −100
% Rsp. (% ΔT/ΔC or % Regression) [2]: 0.0%
% Rsp. (% ΔT/ΔC or % Regression) [3]: 11.1%
% Rsp. (% ΔT/ΔC or % Regression) [4]: 126.1%
% Rsp. (% ΔT/ΔC or % Regression) [5]: 32.2%
% Rsp. (% ΔT/ΔC or % Regression) [6]: 2.3%
% Rsp. (% ΔT/ΔC or % Regression) [7]: −87.5%
% Rsp. (% ΔT/ΔC or % Regression) [8]: 44.8%
% Rsp. (% ΔT/ΔC or % Regression) [9]: 52.3%
% Rsp. (% ΔT/ΔC or % Regression) [10]: 32.4%
% Rsp. (% ΔT/ΔC or % Regression) [11]: 20.3%
% Rsp. (% ΔT/ΔC or % Regression) [12]: −23.6%
% Rsp. (% ΔT/ΔC or % Regression) [13]: −79.6%

CO[C@@H](C)Cn1c(=O)n(C)c2cnc3ccc(-c4cncc(C(C)(C)O)c4)cc3c21 [Compound B, 8-[5-(1-hydroxy-1-methylethyl)pyridin-3-yl]-1-[(2S)-2-methoxypropyl]-3-methyl-1,3-dihydro-2H-imidazo[4,5-c]quinolin-2-one]
efficacy values, % response, range over the models [1]: 163% to −31
% Rsp. (% ΔT/ΔC or % Regression) [2]: 23.3%
% Rsp. (% ΔT/ΔC or % Regression) [3]: 27.5%
% Rsp. (% ΔT/ΔC or % Regression) [4]: 163.0%
% Rsp. (% ΔT/ΔC or % Regression) [5]: 54.6%
% Rsp. (% ΔT/ΔC or % Regression) [6]: −6.9%
% Rsp. (% ΔT/ΔC or % Regression) [7]: 80.3%
% Rsp. (% ΔT/ΔC or % Regression) [8]: 26.9%
% Rsp. (% ΔT/ΔC or % Regression) [9]: 28.1%
% Rsp. (% ΔT/ΔC or % Regression) [10]: 72.7%
% Rsp. (% ΔT/ΔC or % Regression) [11]: 7.7%
% Rsp. (% ΔT/ΔC or % Regression) [12]: 86.5%
% Rsp. (% ΔT/ΔC or % Regression) [13]: 112.0%

Reference: US20180228795A1, “COMBINATION THERAPY FOR CANCER” (Eli Lilly and Company, priority 2015, published 2018)
